Reference: US12302902B2, “Antimicrobial compositions, including antimicrobial hydrogels, effective against mature biofilms” (Cormedix Inc., priority 2017, dated 2025)

Columns and labels:
P. aeruginosa = settings: cited from earlier work
[1] = test system: Pseudomonas aeruginosa (PAO1) biofilm; assay: Ex vivo biofilm porcine skin explant model, bacterial load after treatment with hydrogel; format: cell-based; settings: 3 day cultured PA01 explants, treated with 1 ml solution, cell count Day 4
Microbes = settings: cited from earlier work

What does the source list for NC[C@H]1O[C@H](O[C@H]2[C@H](O)[C@@H](O[C@H]3O[C@H](CO)[C@@H](O)[C@H](N)[C@H]3O)[C@H](N)C[C@@H]2N)[C@H](N)C[C@@H]1O [tobramycin]?
reduction of biofilm cell counts (P. aeruginosa; P. aeruginosa biofilm, tobramycin levels far in excess of the MIC): approximately 2 logs; decrease in planktonic cells (P. aeruginosa; P. aeruginosa planktonic cells, same dosage): > 8 log

Which “PA01 AVG (average CFU/ml of sonicated explant bacterial suspension)” value [1] does the source give for gentamicin here?
The value was 3.45E+07 CFU/ml.

With O=S1(=O)CCN(CN2CCS(=O)(=O)NC2)CN1 [Taurolidine, bis(1,1-dioxoperhydro-1,2,4-thiadiazinyl-4)-methane] as the compound, how does the “destruction time in vitro” value (Microbes) read?
Its value is 30 min.
